Results on five compounds are retold here after patent US20250129116A1, “CYCLOPROPANOL AS A BIOORTHOGONAL WARHEAD FOR ELECTROCHEMICALLY CONTROLLED BIOCONJUGATION APPLICATIONS” (UNIVERSITY OF SOUTH CAROLINA, priority 2023, published 2025).

In one series the test system is NIH-3T3 cells. In words: Metabolic incorporation of CPol-choline, lipidomic experiments and LC-MS. Format: cell-based. Conditions: 5 mM, 24 h. The method, then:
(§1) Three million cells (Vero, HeLa, or NIH-3T3) were seeded into a 10-cm cell culture dish and allowed attachment for 24 h in a complete medium (DMEM with 10% FBS) in a CO2 incubator. When cells reached 70-80% confluency, choline analog (PCPol-Cho or ECPol-Cho) at a final concentration of 5 mM was added into cells and co-cultured for another 24 h. The adhered cells were washed with 5 mL ice-cold DPBS (Dulbecco's Phosphate-Buffered Saline, CORNING), and were scratched into ice-cold PBS (5 mL), pooled in a centrifuge tube, and centrifuged at 1,000 rpm for 5 min at room temperature. The supernatant was then aspirated off and the lipids were extracted from the resultant pellet using the modified Bligh Dyer method. Briefly, the cell pellet was treated with a mixture of chloroform and methanol (1 mL of a 1:2 v/v solution), vortexed for 1 min, followed by addition of chloroform (0.5 mL) and 1 M NaCl (0.5 mL), and again vortexed for 1 min. Phase separation was achieved by centrifuging the mixture at 3,220 g at 4° C. for 30 min. The lower lipid-enriched organic layer was separated and dried using nitrogen at room temperature. For all LC-MS/MS analyses, the dried lipids were dissolved in a mixture of chloroform and methanol (200 μL of a 1:1 v/v solution). For all control experiments, the procedure described above was followed without administration of any choline derivatives.
(§2) Choline stands as the predominant head group in phospholipids which are the principal components of all cellular membranes. […] (FIG. 5A). The metabolic incorporation efficiency of CPol-choline was evaluated through lipidomic experiments (FIG. 15A) and LC-MS (FIG. 15B).

Series [1] relates to Vero cells. Described as above. In kind it is cell-based. The following applies: 5 mM, 24 h. The procedure:
as §1, §2

The next series concerns Hela cells. The description is as above. In kind it is cell-based. The following applies: 5 mM, 24 h. The method, then:
as §1, §2

The test system of series [2] is Vero cells. As to the kind of experiment: Electrochemically assisted cell labeling, FTSCA fluorescence. Format: cell-based. Conditions: CPol+NaI+Echem group: 5 mM CPol-choline, NaI 100 μM, 0.7 V, 50 μM FTSCA, plate reader. The procedure:
Vero cells were cultured in a 100-mm cell culture dish and allowed attachment overnight in a complete medium (DMEM with 10% FBS). When cells reached 60-70% confluency, CPol-choline analog at a final concentration of 5 mM was added into Vero cells and co-cultured for 24 h. The labeled Vero cells were harvested into 5 mL Dulbecco's Phosphate-Buffered Saline (DPBS 1×, CORNING). The cell numbers were counted using a hemocytometer. The cell concentration at 6×10^6 cells was used in the experiment. Subsequently, the Vero cell suspension was treated with NaI (100 μM) and low cell potential (0.7 V) under divided H-cell for 10 min. […] For the fluorescence imaging, the cells in a 24-well plate were fixed with 70% ethanol at −20° C. for 10 min, washed with DPBS three times, and then reacted with 50 μM FTSCA for 1 h at room temperature. After removing the unbound FTSCA, the cells were imaged by a fluorescence microscope (Olympus IX81, Shinjuku-ku, Tokyo, Japan). […] After washing with DPBS, the plate was read using a plate reader (Tecan Infinite M200 microplate reader) with an excitation wavelength of 491 nm and emission cutoff at 520 nm. […]
The intensity of this fluorescence was quantified using a plate reader and visualized using fluorescence microscopy (FIG. 6A). […]

Series [3] concerns Vero cells. As to the kind of experiment: CellTiter Blue (CTB) cell viability assay. In kind it is cell-based. Conditions: 24 h. The procedure:
The in vitro cytotoxicity test of CPol-choline analog or other chemicals on Vero cells was determined by CellTiter Blue (CTB) cell viability assay (Promega). Briefly, Vero cells were cultured in 96-well plates at a density of 12.5×10^3 cells per well one day prior experiment. On the following day, the media was replaced by fresh 10% FBS DMEM containing the choline analogs at the concentrations of 0.2, 0.4, 0.8, 1, and 5 mM and incubated for 24 h at 37° C. The cells without the compounds were used as controls. NaI and I2 were also tested at the concentrations varied from 0.01 to 10,000 μM. The experiments were performed in quadruplicate. After 24 h of incubation, the media in each well was replaced by prewarmed media containing 10% CTB reagent and incubated for 2 h at 37° C. and 5% CO2. The medium containing CTB without cells was used as a negative control. Fluorescence intensity was then measured at 560/590 nm (Ex/Em) using SpectraMax M2 Multi-Mode microplate reader (Molecular Devices) to indicate cell viability.
(Alamar Blue is a resazurin reagent that responds to reducing activity.)

Series [4] has as its system wild-type tobacco mosaic virus (wt-TMV). As to the kind of experiment: Electrochemically promoted bioconjugation, MALDI-TOF MS. Format: biochemical. The method, then:
To purify wild-type plant virus tobacco mosaic virus (TMV), frozen TMV leaves were crushed and blended. Approximately 3 volumes of phosphate buffer were added to the crushed leaves with an addition of 0.2-0.3% 2-mercaptoethanol. The leaves were blended for 2 min at a low setting and then switched to the highest setting for an additional 3 min. The blended plant sap was filtered through two layers of cheesecloth and then flow through was centrifuged at 10500 rpm (Sorvall SLA 1500) at 4° C. for 20 min. The resulting supernatant was then pooled together and mixed with n-butanol/chloroform at a ratio of 2:1:1 (plant sap/n-butanol/chloroform). The homogenate was stirred for 30 min on ice and then centrifuged at 6000 rpm (SLA 4000) for 10 min at 4° C. The upper aqueous layer was transferred to a beaker, and the virus was precipitated by adding 0.2 M NaCl and 8% (wt/vol) PEG-8000. The mixture was stirred on ice for 60 min and centrifuged at 12000 rpm (Sorvall SLA1500) for 20 min. The white precipitant was then resuspended with 10 mM K phos buffer (pH 7.8). The solution was centrifuged at 9,500 rpm for 15 min at 4° C. to remove excess PEG. The supernatant was transferred to ultracentrifuge tubes (Beckman 50.2 Ti) and the virus was pelleted at 42,000 rpm at 4° C. for 3 h. The virus pellet was resuspended in 100 mM K phos buffer (pH 7.8) overnight at 4° C. UV absorbance was measured at 260 and 280 nm wavelengths to determine the concentration of the virus. […] The purified virus solutions were stored at 4° C.
Mass spectra were generated with a MALDI-TOF mass spectrometer (rapifleX MALDI Tissuetyper from BRUKER) equipped with a solid-state smart beam and operated in a linear delayed extraction positive ion mode. […] These spots were analyzed by MALDI-TOF MS spectrometer with the matrix (Vsample: Vmatrix=1:1). […]
Subsequently, the electrochemical bioconjugation approach was evaluated on lysozyme, a 14 kDa cationic protein. […] Additionally, the electrochemical bioconjugation on bovine serum albumin (BSA) was also evaluated. […]

A further series deals with lysozyme (Gallus gallus, UniProt P00698). The description is as above. Format: biochemical. The following applies: NaBr, constant voltage 1.2 V, phosphate buffer 0.1 M pH 7.0. The procedure:
(§3) Mass spectra were generated with a MALDI-TOF mass spectrometer (rapifleX MALDI Tissuetyper from BRUKER) equipped with a solid-state smart beam and operated in a linear delayed extraction positive ion mode. The samples of conjugated peptide were concentrated using IMCStips (1 mL, IMCS company) and eluted with 70% acetonitrile/0.1% trifluoracetic acid (TFA) following the manufacturer protocol. Of note, the samples of conjugated proteins and viruses were denatured by incubating with guanidinium chloride (8 M) for 5 min at RT, followed by the removal of salts and elution using IMCStips. The resultant samples were spotted on a MALDI plate. These spots were analyzed by MALDI-TOF MS spectrometer with the matrix (Vsample: Vmatrix=1:1). Matrix of sinapic acid in 50% acetonitrile/0.1% TFA was used for protein measurements, and the matrix of a-Cyano-4-hydroxycinnamic acid in 50% acetonitrile/0.1% TFA was used for peptide measurements.
(§4) To further access the compatibility of biomolecules and various CPol derivatives within the electrochemical bioconjugation process, a range of biomolecules including peptides, proteins, and TMV, along with different CPol derivatives, were subjected to the NaI or NaBr redox catalyst and a low cell potential of 0.8 V or 1.2 V individually (FIG. 4A). Electrochemical bioconjugation was employed for labeling angiotensin I, which is a peptide hormone responsible for vasoconstriction and evaluated in blood pressure. […] However, when modifying angiotensin I with NaI at a voltage of 0.8V, certain side reactions may occur. […] Thus, we conducted a preliminary reaction involving bivalirudin or lysozyme, compound 1, and the resulting Br-substituted ketone without the application of electrochemical conditions (FIGS. 11-12).
(§5) Subsequently, the electrochemical bioconjugation approach was evaluated on lysozyme, a 14 kDa cationic protein. […] Additionally, the electrochemical bioconjugation on bovine serum albumin (BSA) was also evaluated. […] Besides, the conjugated biomolecule was conjugated with biotin-oxyamine under weak acidic conditions (m/z=18063 in FIG. 4F), which can be used in further cell labeling or protein proteomic analysis.

Series [5] concerns the target bovine serum albumin (BSA) (Bos taurus, UniProt P02769). The series is described as above. In kind it is biochemical. Conditions: NaX (X=I or Br), 0.8 V or 1.2 V, phosphate buffer 0.1 M pH 7.0. The method, then: as §3, §4, §5
The subject of a further series is bivalirudin. As to the kind of experiment: Electrochemically promoted bioconjugation, MALDI-TOF MS and LC-MS. Format: biochemical. The following applies: NaBr, constant voltage 1.2 V, batch reaction. The method, then: as §3, with “Matrix of sinapic acid in 50% acetonitrile/0.1% TFA was used for protein measurements, and the matrix of a-Cyano-4-hydroxycinnamic acid in 50% acetonitrile/0.1% TFA was used for peptide measurements.” left out
(§6) To further access the compatibility of biomolecules and various CPol derivatives within the electrochemical bioconjugation process, a range of biomolecules including peptides, proteins, and TMV, along with different CPol derivatives, were subjected to the NaI or NaBr redox catalyst and a low cell potential of 0.8 V or 1.2 V individually (FIG. 4A). Electrochemical bioconjugation was employed for labeling angiotensin I, which is a peptide hormone responsible for vasoconstriction and evaluated in blood pressure. […]

For another series, the target named is T1, angiotensin I (Homo sapiens, UniProt P01019).
T1 construct: labeling angiotensin I, which is a peptide hormone responsible for vasoconstriction
The description is as above. In kind it is biochemical. Conditions: NaBr, constant voltage 1.2 V. The method, then:
as §3, with “Matrix of sinapic acid in 50% acetonitrile/0.1% TFA was used for protein measurements, and the matrix of a-Cyano-4-hydroxycinnamic acid in 50% acetonitrile/0.1% TFA was used for peptide measurements.” left out
as §6

SMILES strings stand for the structures.

Chain of lysozyme (P00698 19-147): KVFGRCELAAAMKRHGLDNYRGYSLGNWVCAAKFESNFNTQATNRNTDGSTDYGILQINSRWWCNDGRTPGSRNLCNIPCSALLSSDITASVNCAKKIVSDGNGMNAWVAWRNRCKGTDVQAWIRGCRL
Chain of bovine serum albumin (BSA) (P02769 25-607): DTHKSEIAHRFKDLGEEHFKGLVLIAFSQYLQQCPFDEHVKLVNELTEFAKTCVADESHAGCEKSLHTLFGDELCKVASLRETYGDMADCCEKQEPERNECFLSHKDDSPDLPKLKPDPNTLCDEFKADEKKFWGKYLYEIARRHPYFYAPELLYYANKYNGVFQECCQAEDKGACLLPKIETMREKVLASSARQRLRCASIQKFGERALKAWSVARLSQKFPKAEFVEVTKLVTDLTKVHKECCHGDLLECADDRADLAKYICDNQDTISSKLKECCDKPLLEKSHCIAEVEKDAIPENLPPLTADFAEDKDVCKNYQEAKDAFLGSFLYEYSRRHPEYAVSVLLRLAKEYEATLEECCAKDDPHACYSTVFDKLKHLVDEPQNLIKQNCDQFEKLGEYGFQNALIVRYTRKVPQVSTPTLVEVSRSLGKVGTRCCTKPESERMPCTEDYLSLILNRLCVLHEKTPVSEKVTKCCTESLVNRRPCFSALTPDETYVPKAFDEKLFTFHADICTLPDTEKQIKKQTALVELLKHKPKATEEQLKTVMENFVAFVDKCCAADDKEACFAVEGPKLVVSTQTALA

Regarding `Br.C[N+](C)(CCO)CCCC1(O)CC1` [CPol-choline analog], the “metabolic incorporation into cells” value with NIH-3T3 cells, in the series on Vero cells [1] and in the series on Hela cells was “successfully incorporated” throughout. Besides, the “intracellular fluorescence intensity after labeling with FTSCA” value in the series with Vero cells [2] is on record as “strongest fluorescent intensity”. Moreover, the “cytotoxicity on Vero cells” value in the series on Vero cells [3] (choline analog 0.2-5 mM) was “no cytotoxicity was observed”.
For the compound `OC1(c2ccccc2)CC1` [Formula I-1, Phenylcyclopropanol], the “conjugation to wt-TMV” value in [4] (CPol derivative 10 eq., NaI, potential of 1.2 V) was “modified TMV peak ([M+132]^+) was found”; in series [4] (identical electrochemical conditions (1.2 V) without NaI), “no reaction occurred”. For the same compound, on lysozyme, the conjugation to lysozyme result is on record as “efficiently conjugated”. In addition, the “conjugation to BSA” value in series [5] is given as “efficiently conjugated”. Besides, the modification of bivalirudin result in the series with bivalirudin is recorded as “effectively modified”. At angiotensin I, the “labeling of angiotensin I” value is listed as “successful labeling”.
Consider `CCCCCC1(O)CC1` [Formula I-4, Pentylcyclopropanol], for which the “conjugation to wt-TMV” value in series [4] (NaBr, constant voltage 1.2 V) was “successfully modified”. Moreover, the conjugation to lysozyme result at lysozyme was “efficiently conjugated”. Moreover, in [5], the “conjugation to BSA” value was “efficiently conjugated”.
Take `OC1(c2ccc(C(F)(F)F)cc2)CC1` [Formula I-7, 1-(4-(trifluoromethyl)phenyl)cyclopropan-1-ol]: the conjugation to lysozyme entry at lysozyme is recorded as “efficiently conjugated”.
`[I-].[Na+]` [NaI, sodium iodide]: the “cytotoxicity on Vero cells” value in the series on Vero cells [3] (NaI 0.01 to 10,000 μM) is listed as “safely co-cultured”.
